From patent US5968751A, “Method for detecting the presence of protein C antibody in a fluid sample” (The Scripps Research Institute, priority 1997, dated 1999)
No end group written: not given here.

Columns and labels:
APC [1] = target: T1, APC (Homo sapiens, UniProt P04070); assay: Xa-1-stage coagulation assay, inhibition of APC anticoagulant activity; format: biochemical; design: Protein C consists of a 155 amino acid residue light chain and a 262 amino acid residue heavy chain; from tissue; host or cells: human plasma factor IX concentrate; conditions: final peptide concentration 500 μM; NHP; 0 = no observable effect +10%
Method: For testing the inhibition of the synthetic peptides on APC activity described above, Xa-1-stage coagulation assays were also performed as described. See Seegers et al., Thrombosis Res., 13:233-243 (1978); Marlar et al., supra; and Walker et al., J. Biol. Chem., 265:1484-1489 (1990). PC heavy chain-derived peptides listed below in Table 6 and PC light chain-derived peptides listed below in Table 7 were prepared as described above and separately admixed for a final concentration of 2 mM with 120 nM APC in 100 μl of TBS-BSA at pH 7.4 to form separate peptide-APC admixtures. The resulting admixtures were maintained for ten minutes at 37° C. Separate aliquots of peptides maintained under the same conditions in the absence of APC served as controls for the inhibitory effect of synthetic peptides on APC anticoagulant activity. After the maintenance period, 100 μl of NHP and 100 μl of 200 μg/ml of rabbit brain cephalin (Sigma) were admixed into each peptide admixture and maintained for 200 seconds at 37° C. to form pre-coagulation admixtures. In some experiments, Factor VIII deficient plasma (George King Bio-Medical, Inc.) was used in the place of NHP to determine the effect of Factor VIII on the assay system. Coagulation was then initiated by the admixture of 100 μl of 0.62 nM human activated Factor X (Xa) (Enzyme Research Laboratories, Southbend, Ind.) in TBS-BSA containing 30 mM CaCl2 prewarmed to 37° C. to each of the pre-coagulation admixtures.
The time for clot formation was measured by an Electra 700 Automatic Coagulation Timer (Medical Laboratory Automation, Inc., Mount Vernon, N.Y.). Each peptide's effect was determined in duplicate. The results of the inhibition of APC anticoagulant activity by synthetic peptides as measured in Xa-1-stage coagulation assays are presented in Tables 6 and 7 below with the APTT assay results and are presented as the mean values obtained with APTT assays. Data for results with PC heavy chain-derived peptides are shown in Table 6 and data for results with PC light chain-derived peptides are shown in Table 7.
The results of inhibition of APC anticoagulant activity by PC light chain-derived peptides in a Xa-1 stage coagulation assay are shown in Table 7. The assay was performed in the presence of NHP. Peptides used in the assay were prepared as described in Example 1 and are listed in Table 7 by their corresponding residue positions in native PC protein (SEQ ID NO 1). For all peptides except PC142-155 used in the Xa-1 stage assays listed in Table 7, cysteine residues in the native PC amino acid residue sequence were substituted by either serine or glycine in the synthesized peptide. This was done to prevent multiple disulfide formation and subsequent potential polymerization among peptides with multiple cysteines. […]
Target sequence in this assay (P04070 43-197 limits assumed): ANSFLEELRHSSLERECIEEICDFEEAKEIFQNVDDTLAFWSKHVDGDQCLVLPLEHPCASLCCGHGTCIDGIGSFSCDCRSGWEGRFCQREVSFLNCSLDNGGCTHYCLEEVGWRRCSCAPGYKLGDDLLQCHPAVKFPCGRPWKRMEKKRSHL
Target sequence in this assay (P04070 212-450 limits assumed): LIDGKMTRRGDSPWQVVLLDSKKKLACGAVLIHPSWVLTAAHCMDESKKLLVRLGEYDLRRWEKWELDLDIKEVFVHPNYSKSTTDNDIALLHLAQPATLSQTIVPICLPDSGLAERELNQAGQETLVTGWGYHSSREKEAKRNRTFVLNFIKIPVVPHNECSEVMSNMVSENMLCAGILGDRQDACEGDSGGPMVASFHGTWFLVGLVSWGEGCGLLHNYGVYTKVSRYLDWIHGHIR

APC [2] = target: T1, APC; design: Protein C consists of a 155 amino acid residue light chain and a 262 amino acid residue heavy chain; from tissue; alpha1-AT mutant from Transgene, Strasbourg; conditions: Heeb et al. 1990; cited from earlier work
Target sequence in this assay (P04070 43-197): as the sequence (P04070 43-197 limits assumed) above
Target sequence in this assay (P04070 212-461): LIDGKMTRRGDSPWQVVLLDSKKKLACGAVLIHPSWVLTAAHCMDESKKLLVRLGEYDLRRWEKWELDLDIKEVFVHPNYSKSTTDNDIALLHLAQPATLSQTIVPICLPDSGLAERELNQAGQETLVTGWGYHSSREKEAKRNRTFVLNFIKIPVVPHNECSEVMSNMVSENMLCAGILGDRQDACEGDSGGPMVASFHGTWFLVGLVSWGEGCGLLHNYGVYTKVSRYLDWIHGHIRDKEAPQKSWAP

inhibition at 500 µM (APC [1])	Substance	increase in the association rate for APC by substitution of Met358 by Arg (APC [2])
66%	HPAVKFPSGRPWKRM-NH2 (C-terminus assumed) [PC134-148]	
	α1 -AT: recombinant mutant (Arg358)-α1-antitrypsin, macromolecular pseudo-substrate inhibitor of APC (Transgene)	over 4400 fold
